Experimental data as given in patent US20240122938A1, “METHODS AND COMPOSITIONS FOR TREATING UVEAL MELANOMA” (INSERM (INSTITUT NATIONAL DE LA SANTÉ ET DE LA RECHERCHE …, priority 2019, published 2024).

How the values were obtained:
[1] = system: short-term cultures of primary uveal melanoma tumour; assay: Cell death in short-term cultures; type: cell-based, human; details: data not shown
Description: (§1) Human uveal melanoma cell lines and short-term cultures derived from different patients with metastatic malignant melanoma cells were grown in DMEM supplemented with 7% FBS at 37° C. in a humidified atmosphere containing 5% CO2. Lipofectamine™ RNAiMAX and opti-MEM medium were purchased from Invitrogen (San Diego, CA, USA). ABT-263 was obtained from Euromedex and qVD from Clinisciences. Cells were seeded at a density of 100 000 cells/well, in 6-well plate and treated with ABT-263 for indicated time. Cells were harvested using accutase enzyme, washed twice with ice-cold phosphate-buffered saline, resuspended in a buffer (Hepes 250 mM, NaCl 150 mM, KCl 5 mM, MgCl2 2 mM, CaCl2) 2 mM) with DAPI (1 μg/ml) and Annexin V-Alexa Fluor 647 conjugate (1/100) and incubated for 15 minutes at room temperature (25° C.) in the dark. Samples were immediately analyzed by a flow cytometer (MACS QUANT) using a laser at 405 nm excitation with a bandpass filter at 425 nm and 475 nm for DAPI detection and a laser at 635 nm excitation with a bandpass filter at 650 nm and 665 nm for Alexa Fluor 647 dye. Annexin and DAPI mono- or double positive cells were counted as dead cells.

[2] = system: 92.1 cells; assay: Cell death / apoptosis; type: cell-based, human; details: 92.1 cells; similar level as Mel270
Description: as §1, with “Cells” for “Human uveal melanoma cell lines and short-term cultures derived from different patients with metastatic malignant melanoma cells were grown in DMEM supplemented with 7% FBS at 37° C. in a humidified atmosphere containing 5% CO2. Lipofectamine™ RNAiMAX and opti-MEM medium were purchased from Invitrogen (San Diego, CA, USA). ABT-263 was obtained from Euromedex and qVD from Clinisciences. Cells”

[3] = system: XBP1 splicing; assay: XBP1 splicing (QRT-PCR); type: cell-based, human; details: both primary cells and metastatic OMM1 cells
Description: The mRNA was isolated using TRIzol (Invitrogen) according to a standard procedure. QRT-PCR was performed using SYBR® Green I (Eurogentec, Seraing, Belgium) and Multiscribe Reverse Transcriptase (Applied Biosystems) and subsequently monitored using the ABI Prism 7900 Sequence Detection System (Applied Biosystems, Foster City, CA). The detection of the SB34 gene was used to normalize the results. Spliced Xbp1 primers were previously reported27. Primer sequences for each cDNA were designed using either Primer Express Software (Applied Biosystems) or qPrimer depot (http://primerdepot.nci.nih.gov), and these sequences are available upon request.

[4] = single agent, phase I/II; cited from earlier work

## CC1(C)CCC(c2ccc(Cl)cc2)=C(CN2CCN(c3ccc(C(=O)NS(=O)(=O)c4ccc(N[C@H](CCN5CCOCC5)CSc5ccccc5)c(S(=O)(=O)C(F)(F)F)c4)cc3)CC2)C1 [ABT-263, 4-[4-[[2-(4-chlorophenyl)-5,5-dimethyl-1-cyclohexen-1-yl]methyl]-1-piperazinyl]-N-[[4-[[(1R)-3-(4-morpholinyl)-1-[(phenylthio)methyl]propyl]amino]-3-[(trifluoromethyl)sulfonyl]phenyl]sulfonyl]-benzamide]
[1]
  killing effect: killing effect was also found
[2]
  ABT-263-induced apoptosis with PERK knockdown: sensitized
[3]
  XBP1 splicing: significantly higher
[4]
  side effects: thrombocytopenia
